Results on seven compounds are retold here after ChEMBL document CHEMBL2406906, “1,2,4-Triazole derivatives as transient inactivators of kallikreins involved in skin diseases” (Bioorg Med Chem Lett, 2013).

pIC50, pKi: −log10 of the molar value. Active and inactive are the calls of the source. The rule behind the calls is not given here.

As usually defined, the pIC50 is the IC50 on a negative log10 scale, so that one unit is a factor of ten. The pKi is the negative decadic logarithm of the Ki, by convention in mol/L. High values mean a small Ki, low ones a large Ki.

In data set [1] the target is T1, Kallikrein-5 (Homo sapiens, UniProt Q9Y337).
T1 sequence (Q9Y337 whole entry): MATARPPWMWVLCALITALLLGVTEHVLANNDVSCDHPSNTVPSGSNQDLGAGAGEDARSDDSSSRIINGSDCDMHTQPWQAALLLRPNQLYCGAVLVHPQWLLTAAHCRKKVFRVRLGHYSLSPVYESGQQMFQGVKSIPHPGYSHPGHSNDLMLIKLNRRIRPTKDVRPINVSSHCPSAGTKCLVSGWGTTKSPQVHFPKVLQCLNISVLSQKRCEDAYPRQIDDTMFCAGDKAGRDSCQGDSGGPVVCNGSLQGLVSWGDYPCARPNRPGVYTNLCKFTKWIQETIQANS
In words: Inhibition of human kallikrein 5 measured after 15 mins at pH 8 by fluorescence assay. The following applies: for pIC50: read-out: IC50.

For data set [2], the target named is T2, Suppressor of tumorigenicity 14 protein (Homo sapiens, UniProt Q9Y5Y6).
T2 sequence (Q9Y5Y6 whole entry): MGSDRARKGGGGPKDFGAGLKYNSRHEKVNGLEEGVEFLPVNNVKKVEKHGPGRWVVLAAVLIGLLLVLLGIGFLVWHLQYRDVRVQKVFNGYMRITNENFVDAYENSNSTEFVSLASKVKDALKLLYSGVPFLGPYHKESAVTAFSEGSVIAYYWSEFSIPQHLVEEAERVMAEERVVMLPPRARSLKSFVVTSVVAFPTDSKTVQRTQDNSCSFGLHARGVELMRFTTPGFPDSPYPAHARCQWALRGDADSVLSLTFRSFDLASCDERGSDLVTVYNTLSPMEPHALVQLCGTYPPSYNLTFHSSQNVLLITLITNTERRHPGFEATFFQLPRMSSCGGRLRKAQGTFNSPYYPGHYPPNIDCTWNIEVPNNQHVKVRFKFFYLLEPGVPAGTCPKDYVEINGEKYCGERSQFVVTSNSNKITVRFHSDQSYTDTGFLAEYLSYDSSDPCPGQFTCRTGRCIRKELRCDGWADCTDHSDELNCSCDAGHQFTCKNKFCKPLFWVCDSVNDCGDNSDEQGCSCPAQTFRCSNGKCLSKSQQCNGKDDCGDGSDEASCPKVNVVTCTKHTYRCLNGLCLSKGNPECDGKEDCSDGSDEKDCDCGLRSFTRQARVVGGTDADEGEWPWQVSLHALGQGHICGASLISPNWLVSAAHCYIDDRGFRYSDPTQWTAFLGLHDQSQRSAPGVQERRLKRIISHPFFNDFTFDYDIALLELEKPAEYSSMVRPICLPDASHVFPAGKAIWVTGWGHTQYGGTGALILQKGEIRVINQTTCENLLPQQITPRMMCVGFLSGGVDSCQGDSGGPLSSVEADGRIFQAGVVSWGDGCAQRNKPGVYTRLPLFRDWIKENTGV
Kind of data set: Inhibition of human matriptase measured after 15 mins at pH 8 by fluorescence assay. The note with it: for pIC50: read-out: IC50.

Data set [3] addresses T3, Kallikrein-7 (Homo sapiens, UniProt P49862). Kind of data set: Inhibition of human kallikrein 7 measured after 15 mins at pH 8 by fluorescence assay. The following applies: for pIC50: read-out: IC50.
Target sequence in this assay (P49862 whole entry): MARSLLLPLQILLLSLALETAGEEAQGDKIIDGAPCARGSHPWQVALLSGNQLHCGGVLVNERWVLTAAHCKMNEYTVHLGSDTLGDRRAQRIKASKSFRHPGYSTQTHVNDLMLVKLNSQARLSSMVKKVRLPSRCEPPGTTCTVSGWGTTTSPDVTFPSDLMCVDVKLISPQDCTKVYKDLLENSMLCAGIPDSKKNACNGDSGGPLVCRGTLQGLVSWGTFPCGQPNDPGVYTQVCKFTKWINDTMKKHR
In another data set the target is T4, Kallikrein-14 (Homo sapiens, UniProt Q9P0G3).
T4 sequence (Q9P0G3 whole entry): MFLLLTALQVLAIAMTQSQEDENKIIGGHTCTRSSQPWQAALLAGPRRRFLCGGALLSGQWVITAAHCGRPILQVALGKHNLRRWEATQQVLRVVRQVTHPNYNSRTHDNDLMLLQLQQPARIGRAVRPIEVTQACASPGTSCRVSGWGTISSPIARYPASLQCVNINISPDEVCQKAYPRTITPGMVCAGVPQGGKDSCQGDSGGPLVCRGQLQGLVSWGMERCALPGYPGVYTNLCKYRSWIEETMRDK
In words: Inhibition of human kallikrein 14 measured after 15 mins at pH 8 by fluorescence assay. The following applies: for pIC50: read-out: IC50.

Data set [4] concerns the target Kallikrein-5 (Homo sapiens) (UniProt Q9Y337). Kind of data set: Inhibition of human kallikrein 5 at 0.5 to 8 uM at pH 8 by fluorescence assay. The note with it: TDE = time-dependent effect.
The target is the same in data set [5]. Kind of data set: Binding affinity to human kallikrein 5 assessed as deacylation of enzyme relative to control.
Data set [6] addresses T3, Kallikrein-7. Kind of data set: Inhibition of human kallikrein 7 at 0.5 to 8 uM at pH 8 by fluorescence assay. The note with it: TDE = time-dependent effect.
Target sequence in this assay (P49862 30-253 limits assumed): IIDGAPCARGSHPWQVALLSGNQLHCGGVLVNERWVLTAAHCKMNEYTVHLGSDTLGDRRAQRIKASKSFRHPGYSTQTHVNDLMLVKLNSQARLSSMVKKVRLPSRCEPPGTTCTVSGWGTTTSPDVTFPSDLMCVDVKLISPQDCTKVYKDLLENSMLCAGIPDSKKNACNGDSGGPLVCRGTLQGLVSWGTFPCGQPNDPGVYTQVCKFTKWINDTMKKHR
Data set [7] concerns the target T3, Kallikrein-7. Kind of data set: Binding affinity to human kallikrein 7 assessed as deacylation of enzyme relative to control.
Target sequence in this assay (P49862 30-253 limits assumed): as above
Data set [8] deals with T5, Kallikrein-14 (Homo sapiens) (UniProt Q9P0G3).
T5 sequence (whole entry): T4 sequence (Q9P0G3 whole entry)
In words: Binding affinity to human kallikrein 14 assessed as half life of deacylated enzyme.

Data set [9] is described as follows: Cytotoxicity against human keratinocytes at 1 to 10 uM after 48 hrs by neutral red uptake assay. Format: cell-based. The following applies: keratinocyte.
In data set [10] the target is T6, Suppressor of tumorigenicity 14 protein (Homo sapiens) (UniProt Q9Y5Y6).
T6 sequence (whole entry): T2 sequence (Q9Y5Y6 whole entry)
Kind of data set: Binding affinity to human matriptase assessed as half life of deacylated enzyme.

Data set [11] has as its target T3, Kallikrein-7. The note with it: 296 nM.
Target sequence in this assay (P49862 30-253 limits assumed): as above
Description: Inhibition of human kallikrein 7 at 296 nM to 1 uM at pH 8 by fluorescence assay
Data set [12] addresses Kallikrein-5 (Homo sapiens) (UniProt Q9Y337). In words: Transient inhibition of human kallikrein 5 assessed as spontaneous reactivation up to 6 hrs.
Data set [13] has the same target. In words: Inhibition of human kallikrein 5 at 296 nM to 1 uM at pH 8 by fluorescence assay. The following applies: TDE = time-dependent effect.
For data set [14], the target named is T1, Kallikrein-5. In words: Inhibition of human kallikrein 5 measured after 15 mins at pH 8 by double-reciprocal plot analysis.
Data set [15] concerns the target T3, Kallikrein-7. In words: Binding affinity to human kallikrein 7 assessed as half life of deacylated enzyme.
Target sequence in this assay (P49862 30-253 limits assumed): as above

`Nc1nc(-c2cccnc2)nn1C(=O)c1ccc(Cl)cc1Cl`: the negative logarithm of the IC50 (pIC50) is less than 4.52 on Kallikrein-5 [1] and 5.46 on Kallikrein-7 [3]. Besides, the IC50 result (in data set [2]; at Kallikrein-14) was “Not Active” throughout.
Turning to `COc1ccc(C(=O)n2nc(-c3ccccc3)nc2N)cc1OC`, the negative logarithm of the IC50 (pIC50) at Kallikrein-5 [1] is 5.89; in data set [2], less than 4.52; on Kallikrein-7 [3], 6.64; on Kallikrein-14, less than 4.52. The inhibition result (in data set [4]; at Kallikrein-7 [6]) was “tde” throughout. In addition, the fold change (FC) was 4 in data set [5] and 0.2 on Kallikrein-7 [7].
`COc1ccc(C(=O)n2cnnc2N)cc1`: the T1/2 in data set [8] was found to be 5 min. Besides, the negative-log IC50 (pIC50) was 6.00 at Kallikrein-5 [1], less than 4.52 in [2], 6.21 at Kallikrein-7 [3] and 5.46 at Kallikrein-14. Also, in [9], the Activity result is “Non-toxic”.
As for `C/C(=C\c1ccccc1)C(=O)n1nnc2ccccc21`, the IC50 result (at Kallikrein-5 [1]; in [2]; against Kallikrein-7 [3]; at Kallikrein-14) was “Not Active” in each case.
`Nc1nc(-c2cccnc2)nn1C(=O)c1ccc(Cl)cc1`: the pIC50 was 5.94 on Kallikrein-5 [1], less than 4.52 in data set [2], 6.66 on Kallikrein-7 [3] and less than 4.52 at Kallikrein-14. For the same compound, the fold change (FC) was determined as 8 in data set [5] and 2 at Kallikrein-7 [7].
`Cc1ccc(C(=O)n2nc(-c3cccnc3)nc2N)cc1`: the T1/2 in data set [10] and in data set [8] was 5 min in each case. The inhibition result (on Kallikrein-7 [11]; in data set [13]) was “tde” throughout. Also, the negative logarithm of the IC50 (pIC50) was 6.57 on Kallikrein-5 [1], 6.24 in data set [2], 7.40 at Kallikrein-7 [3] and 5.89 on Kallikrein-14. Moreover, the inhibition entry in data set [12] was “Active”. The Activity result in [9] is “Non-toxic”. Further, the negative-log Ki (pKi) at Kallikrein-5 [14] is 5.36.
As to `CSc1nc(-c2ccc(Cl)cc2)nn1C(=O)c1ccccc1`, the T1/2 came out at 5 min in data set [10], 5 min in data set [8] and 39 min at Kallikrein-7 [15]. For the same compound, the pIC50 at Kallikrein-5 [1] was 6.85; in data set [2], 6.38; at Kallikrein-7 [3] it was 6.18; at Kallikrein-14, 6.01. The Activity entry in [9] is “Non-toxic”. Also, on Kallikrein-7 [7], the fold change (FC) was found to be 0.2.
